From US9556159B2, “Renin inhibitor” (MITSUBISHI TANABE PHARMA CORPORATION, priority 2012, dated 2017)

target: T1, Recombinant human renin (Homo sapiens, UniProt P00797); assay: Inhibitory activity against human renin (fluorogenic peptide substrate); assay type: biochemical; conditions: 37° C. for 1 hour, read-out: IC50
T1 sequence (P00797 67-406): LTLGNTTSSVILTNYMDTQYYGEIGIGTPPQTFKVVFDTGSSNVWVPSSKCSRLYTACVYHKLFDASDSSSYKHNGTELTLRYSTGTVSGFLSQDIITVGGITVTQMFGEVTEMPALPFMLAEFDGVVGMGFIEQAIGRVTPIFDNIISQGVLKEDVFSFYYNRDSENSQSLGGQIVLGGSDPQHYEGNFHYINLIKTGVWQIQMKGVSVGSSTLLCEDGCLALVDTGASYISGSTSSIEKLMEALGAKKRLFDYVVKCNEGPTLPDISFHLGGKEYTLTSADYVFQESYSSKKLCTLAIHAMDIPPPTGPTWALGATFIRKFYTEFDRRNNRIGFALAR

| IC50 [nM] | SMILES |
| --- | --- |
| 0.5 | COCCCCn1cc([C@@H](C)N(C(=O)[C@H]2CNCCO2)C2CC2)c2ncc(C3CC3)cc21 [Example 36] |
| 1.5 | COCCCN1CC(C)(C)c2ccc([C@@H](C)N(C(=O)[C@H]3CNCCO3)C3CC3)cc21 [Example 46] |
| 0.7 | COC(=O)NCCCc1cc([C@@H](C)N(C(=O)[C@H]2CNCCO2)C2CC2)ccc1OC(C)C [Example 107] |
| 2.4 | COCCCOc1cc([C@@H](C)N(C(=O)[C@H]2CNCCO2)C2CC2)cc2c1OCCC2 [Example 19] |
| 0.5 | COCCCCn1cc([C@@H](C)N(C(=O)[C@H]2CNCCO2)C2CC2)c2ncc(C)cc21 [Example 20] |
| 1.6 | CCOC(=O)NCCCn1nc([C@@H](C)N(C(=O)[C@H]2CNCCO2)C2CC2)c2ccc(C)nc21 [Example 58] |
| 1.4 | COCCCn1cc(C(C)C)c2cnc([C@@H](C)N(C(=O)[C@H]3CNCCO3)C3CC3)nc21 [Example 73] |
| 0.4 | COCc1cccc2c([C@@H](C)N(C(=O)[C@H]3CNCCO3)C3CC3)nn(CCCNC(=O)OC)c12 [Example 81] |
| 0.4 | CCc1cnc2c([C@@H](C)N(C(=O)[C@H]3CNCCO3)C3CC3)cn(CCCCOC)c2c1 [Example 35] |
| 4 | COC(=O)NCCCc1cccc([C@@H](C)N(C(=O)[C@H]2CNCCO2)C2CC2)c1 [Example 61] |
| 7.3 | COC(=O)NCCn1nc(C)c2ccc([C@@H](C)N(C(=O)[C@H]3CNCCO3)C3CC3)cc21 [Example 9] |
| 0.3 | COC[C@@H]1CNC[C@H](C(=O)N(C2CC2)[C@H](C)c2nn(CCCNC(=O)OC)c3nc(C)ccc23)O1 [Example 1, methyl (3-{3-[(1R)-1-(cyclopropyl{[(2R,6S)-6-(methoxymethyl)morpholin-2-yl]carbonyl}amino)ethyl]-6-methyl-1H-pyrazolo[3,4-b]pyridin-1-yl}propyl)carbamate] |
| 4.8 | COC(=O)NCCCc1cc(OC)cc([C@@H](C)N(C(=O)[C@H]2CNCCO2)C2CC2)n1 [Example 87] |
| 0.9 | COC(=O)NCCCn1nc([C@@H](C)N(C(=O)[C@H]2CNCCO2)C2CC2)c2ccc(C3CC3)cc21 [Example 59] |
| 1.7 | COC(=O)NCCCn1cc([C@@H](C)N(C(=O)[C@H]2CNCCO2)C2CC2)c2nccnc21 [Example 84] |
| 0.3 | COC(=O)NCCCn1cc([C@@H](C)N(C(=O)[C@H]2CNCCO2)C2CC2)nc1C1CCCCC1 [Example 6, methyl (3-{2-cyclohexyl-4-[(1R)-1-{cyclopropyl[(2R)-morpholin-2-ylcarbonyl]amino}ethyl]-1H-imidazol-1-yl}propyl)carbamate] |
| 0.7 | COCCCCn1cc([C@@H](C)N(C(=O)[C@H]2CNCCO2)C2CC2)c2ncc(OC)cc21 [Example 40] |

same assay, conditions: 50% inhibitory concentration (IC50) against human renin, 37° C. for 1 hour

| IC50 [nM] | SMILES |
| --- | --- |
| 0.5 | COC(=O)NCCCc1cc([C@@H](C)N(C(=O)[C@H]2CNCCO2)C2CC2)nc2ccccc12 [Example 119] |
| 1.5 | COC(=O)NCCCc1cc([C@@H](C)N(C(=O)[C@H]2CNCCO2)C2CC2)nc2cc(F)c(F)cc12 [Example 143] |
| 1.1 | COC(=O)NCCCc1nc([C@@H](C)N(C(=O)[C@H]2CNCCO2)C2CC2)sc1-c1ccc(C)nc1 [Example 408] |
| 0.1 | COC(=O)NCCCn1nc([C@@H](C)N(C(=O)[C@H]2CNCCO2)C2CC2)c(F)c1-c1ccccn1 [Example 216] |
| 2.4 | COC(=O)NCc1cc([C@@H](C)N(C(=O)[C@H]2CNCCO2)C2CC2)nc2ccccc12 [Example 154] |
| 1.3 | COC(=O)NCCCn1nc([C@@H](C)N(C(=O)[C@H]2CNCCO2)C2CC2)nc1-c1ccc(C)cc1 [Example 247] |
| 1.4 | COCCCc1cn(C)c2c(C)nc([C@@H](C)N(C(=O)[C@H]3CNCCO3)C3CC3)cc12 [Example 113] |
| 2 | COC(=O)NCCCc1cc([C@@H](C)N(C(=O)[C@H]2CNCCO2)C2CC2)cnc1O[C@H]1CCOC1 [Example 443] |
| 0.3 | COC(=O)NCCCn1cc([C@@H](C)N(C(=O)[C@H]2CNCCO2)C2CC2)nc1-c1ccccc1Cl [Example 169] |
| 0.8 | COCCCCn1cc([C@@H](C)N(C(=O)[C@H]2CNCCO2)C2CC2)nc1-c1ccccc1 [Example 160] |
| 0.8 | COC(=O)NCCCc1cc([C@@H](C)N(C(=O)[C@H]2CNCCO2)C2CC2)sc1-c1cncnc1 [Example 242] |
| 3.5 | COC(=O)NCCCn1cc([C@@H](C)N(C(=O)[C@H]2CNCCO2)C2CC2)nc1C(F)(F)F [Example 319] |
| 0.8 | COCCCOc1cc([C@@H](C)N(C(=O)[C@H]2CNCCO2)C2CC2)nn1-c1ccccc1 [Example 361] |
| 0.5 | COC(=O)NCCCc1cc([C@@H](C)N(C(=O)[C@H]2CNCCO2)C2CC2)nn1C(C)C [Example 225] |
| 3.1 | COC(=O)NCCCc1nc(C(C)N(C(=O)[C@H]2CNCCO2)C2CC2)sc1-c1cccnc1 (stereo partly shown) [Example 403] |
| 0.6 | COC(=O)NCCCn1cc([C@@H](C)N(C(=O)[C@H]2CNCCO2)C2CC2)nc1-c1cccc(F)c1 [Example 165] |
| 2.7 | COC(=O)NCCCc1cc(C(C)N(C(=O)[C@H]2CNCCO2)C2CC2)sc1C(C)CO (stereo partly shown) [Example 420] |
| 0.6 | CCc1nc([C@@H](C)N(C(=O)[C@H]2CNC[C@@H](COC)O2)C2CC2)cc2c1ncn2CCCOC [Example 394] |
| 6.1 | CCc1nc([C@@H](C)N(C(=O)[C@H]2CN[C@@H](C)CO2)C2CC2)cc2c1ncn2CCCOC [Example 389] |

More lines, now with the values behind:

| SMILES | IC50 [nM] |
| --- | --- |
| COC(=O)NCCCc1nc(OC)cc([C@@H](C)N(C(=O)[C@H]2CNC[C@@H](C)O2)C2CC2)n1 [Example 375] | 1.3 |
| C[C@H](c1cn(Cc2ccccc2)c(-c2ccccc2)n1)N(C(=O)[C@H]1CNCCO1)C1CC1 [Example 194] | 3 |
| COC(=O)NCCCn1cc([C@@H](C)N(C(=O)[C@H]2CNC[C@@H](C(F)(F)F)O2)C2CC2)nc1-c1ccccc1 [Example 219] | 0.4 |
| COC(=O)NCCCc1cc([C@@H](C)N(C(=O)[C@H]2CNCCO2)C2CC2)nn1-c1cccc(C(F)(F)F)c1 [Example 348] | 0.7 |
| COCCCc1cc([C@@H](C)N(C(=O)[C@H]2CNC[C@@H](C)O2)C2CC2)cc(CCCNC(=O)OC)n1 [Example 373] | 0.8 |
| COC(=O)NCCCc1cc([C@@H](C)N(C(=O)[C@H]2CNCCO2)C2CC2)sc1Cc1nnn[nH]1 [Example 272] | 6.1 |
| COC(=O)NCCCc1nc([C@@H](C)N(C(=O)[C@H]2CNCCO2)C2CC2)sc1C(=O)Nc1ccccc1OC [Example 439] | 8 |
| COC(=O)NCC(F)Cn1nc([C@@H](C)N(C(=O)[C@H]2CNCCO2)C2CC2)cc1-c1ccccc1 (stereo partly shown) [Example 193] | 0.4 |
| COC(=O)NCCCc1cc([C@@H](C)N(C(=O)[C@H]2CNC[C@@H](C)O2)C2CC2)cc(C2CC2)n1 [Example 342] | 0.4 |
| COC(=O)NCCCc1cc([C@@H](C)N(C(=O)[C@H]2CNC[C@@H](C)O2)C2CC2)nn1-c1cccc(F)c1F [Example 347] | 0.7 |
| COC[C@H]1CO[C@@H](C(=O)N(C2CC2)[C@@H](C)c2nn(CCCNC(=O)OC)c(-c3ccccn3)c2C)CN1 [Example 338] | 5.3 |
| COC(=O)NCCCc1cc([C@@H](C)N(C(=O)[C@H]2CNC[C@@H](C)O2)C2CC2)nn1-c1ccccc1C [Example 345] | 0.4 |
| COC[C@H]1CO[C@@H](C(=O)N(C2CC2)[C@@H](C)c2nn(CCCNC(=O)OC)c(C3CCOCC3)c2F)CN1 [Example 328] | 1.1 |
| COC(=O)NCCCc1cc([C@H](C)N(C(=O)[C@H]2CNCCO2)C2CC2)cnc1C1CCOCC1 [Example 317] | 0.6 |
| COC(=O)NCCCc1cc(C(C)N(C(=O)[C@H]2CNC[C@@H](C)O2)C2CC2)nn1-c1ccccc1C(F)(F)F (stereo partly shown) [Example 350] | 1.9 |
| COC(=O)NCCCc1cc([C@@H](C)N(C(=O)[C@H]2CNCCO2)C2CC2)nn1-c1ccc(F)cc1 [Example 221] | 0.3 |
| COC(=O)NCCCn1nc([C@@H](C)N(C(=O)[C@H]2CNC[C@@H](CO)O2)C2CC2)c2ccc(C)nc21 [Example 255] | 0.4 |
| COC(=O)NCCCc1cc(C(C)N(C(=O)[C@H]2CNCCO2)C2CC2)sc1-c1cnc2[nH]ccc2c1 (stereo partly shown) [Example 410] | 6.7 |
| COC(=O)NCCCc1cc(C(C)N(C(=O)[C@H]2CNCCO2)C2CC2)sc1C1CCOCC1 (stereo partly shown) [Example 419] | 1.4 |
| COC(=O)NCCCc1cc([C@@H](C)N(C(=O)[C@H]2CNCCO2)C2CC2)nn1-c1ccccc1F [Example 211] | 0.5 |
| COC(=O)NCCCc1sc([C@@H](C)N(C(=O)[C@H]2CNCCO2)C2CC2)cc1-c1ccccc1CO [Example 435] | 1.3 |
| COC(=O)NCCCn1cc([C@@H](C)N(C(=O)[C@H]2CNC[C@@H](C(F)(F)F)O2)C2CC2)nc1-c1ccccc1 [Example 203] | 0.5 |
| COC(=O)NCCCc1cc([C@@H](C)N(C(=O)[C@H]2CNC[C@@H](C)O2)C2CC2)nn1-c1cccc(C)c1 [Example 344] | 0.4 |
| COc1cccc(Cn2cc([C@@H](C)N(C(=O)[C@H]3CNCCO3)C3CC3)nc2-c2ccccc2)c1 [Example 195] | 3.6 |
| COC(=O)NCCCc1sc([C@H](C)N(C(=O)[C@H]2CNCCO2)C2CC2)cc1Br [Example 437] | 2.7 |
| COC(=O)NCCCn1cc([C@H](C)N(C(=O)[C@H]2CNC[C@@H](COCc3ccccc3)O2)C2CC2)nc1C1CCOCC1 [Example 339] | 0.4 |
| COC(=O)NCCCn1nc([C@@H](C)N(C(=O)[C@H]2CN[C@@H](COCc3ccccc3)CO2)C2CC2)c2ccc(C)nc21 [Example 257] | 1.3 |
| COC(=O)NCCCc1cc(C(C)N(C(=O)[C@H]2CNCCO2)C2CC2)sc1C1CC1 (stereo partly shown) [Example 396] | 4.8 |
